Source: PubChem BioAssay AID1259411 (Chemical Carcinogenesis Research Information System (CCRIS), 2018)
Calls of active or inactive are those of the source. The rule behind the calls is not given here.

System: rodent carcinogenicity bioassays, tumor incidence
Assay: CCRIS carcinogenicity studies
In short: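 NCI-built, expert-reviewed records of carcinogenicity and related test outcomes (mutagenicity, tumor promotion/inhibition) compiled from published and report sources, historical span 1985-2011, not updated.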

**Q.** With `O=C(O)CCCc1ccc(N(CCCl)CCCl)cc1` as the molecule, how does the carcinogen call (Species: HUMAN, Route: ORAL, Tumor Site: Type of Lesion: HEMATOPOIETIC SYSTEM (LEUKEMIA)) read?
**A.** active; positive

**Q.** What about the carcinogen call (Species: MOUSE, Strain/Sex: BALB/FEMALE, Route: INTRAGASTRIC, Dose: 0, 1 MG/KG SUSPENDED IN WATER 5/WK FOR 12 WK (STUDY DURATION: 120 WK), Tumor Site: Type of Lesion: LUNG: ADENOMA) of the same molecule?
**A.** active; positive

**Q.** And the carcinogen call (Species: MOUSE, Strain/Sex: BALB/FEMALE, Route: INTRAGASTRIC, Dose: 0, 1 MG/KG SUSPENDED IN WATER 5/WK FOR 12 WK (STUDY DURATION: 120 WK), Tumor Site: Type of Lesion: LYMPHORETICULAR SYSTEM: TUMOR)?
**A.** active; positive

**Q.** And the carcinogen call (Species: MOUSE, Strain/Sex: BALB/FEMALE, Route: INTRAGASTRIC, Dose: 0, 1 MG/KG SUSPENDED IN WATER 5/WK FOR 12 WK (STUDY DURATION: 120 WK), Tumor Site: Type of Lesion: MAMMARY GLAND: ADENOMA OR ADENOCANTHOMA)?
**A.** active; positive

**Q.** What about the carcinogen call (Species: MOUSE, Strain/Sex: BALB/MALE, Route: INTRAGASTRIC, Dose: 0, 1 MG/KG SUSPENDED IN WATER 5/WK FOR 12 WK (STUDY DURATION: 120 WK), Tumor Site: Type of Lesion: LUNG: ADENOMA) of the same molecule?
**A.** active; positive

**Q.** What about the carcinogen call (Species: MOUSE, Strain/Sex: BALB/MALE, Route: INTRAGASTRIC, Dose: 0, 1 MG/KG SUSPENDED IN WATER 5/WK FOR 12 WK (STUDY DURATION: 120 WK), Tumor Site: Type of Lesion: LYMPHORETICULAR SYSTEM: TUMOR) of the same molecule?
**A.** active; positive

**Q.** And the carcinogen call (Species: MOUSE, Strain/Sex: STRAIN-A/MALE,FEMALE, Route: INTRAPERITONEAL, Dose: 9.6, 37, 150, 420 MG/KG (TOTAL DOSES) IN 0.5% ACACIA OR 0.01% TRICAPRYLIN SOLN 3/WK FOR 4 WK, Dose: 9.6, 37, 150, 420 MG/KG (TOTAL DOSES) IN 0.5% ACACIA OR 0.01% TRICAPRYLIN SOLN 3/WK FOR 4 WK, Tumor Site: Type of Lesion: LUNG: ADENOMA, ADENOCARCINOMA)?
**A.** active; positive

**Q.** And the carcinogen call (Species: MOUSE, Strain/Sex: SWISS/FEMALE, Route: INTRAPERITONEAL, Dose: 1.5, 3.0 MG/KG 3/WK FOR 6 MO, Tumor Site: Type of Lesion: LUNG: ADENOMA, LYMPHATIC SYSTEM: LYMPHOSARCOMA, OVARIES, Tumor Site: Type of Lesion: LUNG: ADENOMA, LYMPHATIC SYSTEM: LYMPHOSARCOMA, OVARIES)?
**A.** active; positive

**Q.** And the carcinogen call (Species: MOUSE, Strain/Sex: SWISS/MALE, Route: INTRAPERITONEAL, Dose: 1.5, 3.0 MG/KG 3/WK FOR 6 MO, Tumor Site: Type of Lesion: HEMATOPOIETIC SYSTEM (LEUKEMIA), LYMPHATIC SYSTEM: LYMPHOSARCOMA, LUNG: ADENOMA, Tumor Site: Type of Lesion: HEMATOPOIETIC SYSTEM (LEUKEMIA), LYMPHATIC SYSTEM: LYMPHOSARCOMA, LUNG: ADENOMA)?
**A.** active; positive

**Q.** What about the carcinogen call (Species: RAT, Strain/Sex: CD-1/MALE, Route: INTRAPERITONEAL, Dose: 2.2, 4.5 MG/KG 3/WK FOR 6 MO, Tumor Site: Type of Lesion: HEMATOPOIETIC SYSTEM (LEUKEMIA), LYMPHATIC SYSTEM: LYMPHOSARCOMA, RETICULAR CELL SARCOMA) of the same molecule?
**A.** active; positive

**Q.** What about the carcinogen call (Species: RAT, Strain/Sex: SPRAGUE-DAWLEY/FEMALE, Route: GAVAGE, Dose: 0, 3 MG/KG ADMINISTERED 1, 2, 4.5 OR 9 TIMES PER MO FOR 18 MO TO GIVE MEDIAN TOTAL DOSES OF 54, 108, 234, 425 MG/KG (STU, Dose: 0, 3 MG/KG ADMINISTERED 1, 2, 4.5 OR 9 TIMES PER MO FOR 18 MO TO GIVE MEDIAN TOTAL DOSES OF 54, 108, 234, 425 MG/KG (STU, Tumor Site: Type of Lesion: MAMMARY GLAND: TUMOR, NERVOUS SYSTEM: TUMOR, EAR CANAL: TUMOR, Tumor Site: Type of Lesion: MAMMARY GLAND: TUMOR, NERVOUS SYSTEM: TUMOR, EAR CANAL: TUMOR) of the same molecule?
**A.** active; positive

**Q.** Which carcinogen call (Species: MOUSE, Route: INTRAPERITONEAL, Tumor Site: Type of Lesion: OVARIES, LUNG, THYMUS GLAND, Tumor Site: Type of Lesion: OVARIES, LUNG, THYMUS GLAND) does the source give for `C1CN1c1nc(N2CC2)nc(N2CC2)n1` here?
**A.** active; positive

**Q.** How did the carcinogen call (Species: MOUSE, Route: INTRAVENOUS, Tumor Site: Type of Lesion: OVARIES, THYMUS GLAND) turn out when `CS(=O)(=O)OCCCCOS(C)(=O)=O` was run?
**A.** active; positive

**Q.** For `Nc1c(Cl)c(Cl)nc(C(=O)O)c1Cl`, which carcinogen call (Species: MOUSE, Strain/Sex: B6C3F1/FEMALE, Route: ORAL, Dose: 0, 2531, 5062 PPM IN DIET FOR 80 WK (STUDY DURATION: 90 WK), Dose: 0, 2531, 5062 PPM IN DIET FOR 80 WK (STUDY DURATION: 90 WK)) is on record?
**A.** inactive; negative

**Q.** What about the carcinogen call (Species: MOUSE, Strain/Sex: B6C3F1/MALE, Route: ORAL, Dose: 0, 2531, 5062 PPM IN DIET FOR 80 WK (STUDY DURATION: 90 WK), Dose: 0, 2531, 5062 PPM IN DIET FOR 80 WK (STUDY DURATION: 90 WK)) of the same molecule?
**A.** inactive; negative

**Q.** What about the carcinogen call (Species: RAT, Strain/Sex: F344/FEMALE, Route: ORAL, Dose: 0, 20, 60, 200 MG/KG/D OF TECHNICAL GRADE PICLORAM IN FEED FOR 2 YR (STUDY DURATION: 2 YR), Dose: 0, 20, 60, 200 MG/KG/D OF TECHNICAL GRADE PICLORAM IN FEED FOR 2 YR (STUDY DURATION: 2 YR)) of the same molecule?
**A.** inactive; negative

**Q.** And the carcinogen call (Species: RAT, Strain/Sex: F344/MALE, Route: ORAL, Dose: 0, 20, 60, 200 MG/KG/D OF TECHNICAL GRADE PICLORAM IN FEED FOR 2 YR (STUDY DURATION: 2 YR), Dose: 0, 20, 60, 200 MG/KG/D OF TECHNICAL GRADE PICLORAM IN FEED FOR 2 YR (STUDY DURATION: 2 YR))?
**A.** inactive; negative

**Q.** And the carcinogen call (Species: RAT, Strain/Sex: OSBORNE-MENDEL/FEMALE, Route: ORAL, Dose: 0, 7437, 14875 PPM IN DIET FOR 80 WK (STUDY DURATION: 113 WK), Dose: 0, 7437, 14875 PPM IN DIET FOR 80 WK (STUDY DURATION: 113 WK), Tumor Site: Type of Lesion: LIVER: NEOPLASTIC NODULE)?
**A.** equivocal

**Q.** And the carcinogen call (Species: RAT, Strain/Sex: OSBORNE-MENDEL/MALE, Route: ORAL, Dose: 0, 7437, 14875 PPM IN DIET FOR 80 WK (STUDY DURATION: 113 WK), Dose: 0, 7437, 14875 PPM IN DIET FOR 80 WK (STUDY DURATION: 113 WK))?
**A.** inactive; negative

**Q.** How did the carcinogen call (Species: MOUSE, Strain/Sex: ICR/FEMALE, Route: INTRAPERITONEAL, Dose: 0, 500 NMOL (TOTAL DOSE) ADMINISTERED IN DOSES OF 1/7, 2/7, AND 4/7 ON DAYS 1, 7, AND 15 OF LIFE, RESPECTIVELY (STUDY DU, Tumor Site: Type of Lesion: LUNG: TUMOR) turn out when `OC1c2cccc3c2[C@]2(O[C@H]2C1O)c1ccccc1-3` (some centres undefined) was run?
**A.** active; positive

**Q.** And the carcinogen call (Species: MOUSE, Strain/Sex: ICR/MALE, Route: INTRAPERITONEAL, Dose: 0, 500 NMOL (TOTAL DOSE) ADMINISTERED IN DOSES OF 1/7, 2/7, AND 4/7 ON DAYS 1, 7 AND 15 OF LIFE , RESPECTIVELY (STUDY DU, Tumor Site: Type of Lesion: LUNG: TUMOR, LIVER: TUMOR)?
**A.** active; positive

**Q.** And the carcinogen call (Species: RAT, Strain/Sex: STRAIN-CD/FEMALE, Route: INJECTION, Dose: 0, 2, 10 UMOL IN 0.1 ML DMSO INJECTED INTO MAMMARY TISSUE UNDER EACH OF THE 3 LEFT THORACIC NIPPLES FOLLOWED BY SIMILAR, Dose: 0, 2, 10 UMOL IN 0.1 ML DMSO INJECTED INTO MAMMARY TISSUE UNDER EACH OF THE 3 LEFT THORACIC NIPPLES FOLLOWED BY SIMILAR, Tumor Site: Type of Lesion: MAMMARY GLAND: TUMOR)?
**A.** active; positive

**Q.** Which carcinogen call (Species: MOUSE, Strain/Sex: B6D2F1/FEMALE, Route: ORAL, Dose: 0, 565 MG/L IN DRINKING WATER FOR 13 WK (STUDY DURATION: 28 WK), Tumor Site: Type of Lesion: URINARY BLADDER: TUMOR) does the source give for `CCCCN(CCCC(=O)O)N=O` here?
**A.** active; positive

**Q.** And the carcinogen call (Species: MOUSE, Strain/Sex: B6D2F1/MALE, Route: ORAL, Dose: 0, 565 MG/L IN DRINKING WATER FOR 13 WK (STUDY DURATION: 28 WK), Tumor Site: Type of Lesion: URINARY BLADDER: TUMOR)?
**A.** active; positive
